Reference: patent publication US7368475B2, “Furanose-type bicyclic carbohydrates with biological activity” (Kemin Pharma BVBA, priority 2003, dated 2008)
Converted amounts (≈) assume the structure as drawn.

How the values were obtained:
HIV-1 (IIIB) = assay: microbe, parasite or virus in culture; format: cell-based; conditions: Human immunodeficiency virus 1, IIIB, CCRF-CEM; HIV-induced cytopathicity in human CEM cell cultures
HIV-2 (ROD) = assay: HIV-2 (ROD)-induced cytopathicity in human CEM cell cultures; format: cell-based; conditions: Human immunodeficiency virus 2, CCRF-CEM
HSV-1 (KOS) = assay: HSV-1 (KOS)-induced cytopathicity in human embryo fibroblast E6SM; format: cell-based, Herpes Simplex Virus; conditions: Human alphaherpesvirus 1
HSV-2 (G) = assay: HSV-2 (G)-induced cytopathicity in human embryo fibroblast E6SM; format: cell-based, Herpes Simplex Virus; conditions: Human alphaherpesvirus 2
VV = assay: VV-induced cytopathicity in human embryo fibroblast E6SM; format: cell-based, Vaccinia Virus; conditions: for EC50: Orthopoxvirus vaccinia, E6SM, read-out: EC50 VV (E6SM)
VZV OKA = assay: microbe, parasite or virus in culture; format: cell-based, Varicella Zoster Virus; conditions: Human alphaherpesvirus 3, HEL, read-out: EC50 VZV (HEL) OKA
VZV 07/1 = assay: microbe, parasite or virus in culture; format: cell-based, Varicella Zoster Virus; conditions: Human alphaherpesvirus 3, HEL, read-out: EC50 VZV (HEL) 07/1
CMV AD-169 Strain = assay: CMV plaque formation in HEL cells, AD-169 strain; format: cell-based, human Cytomegalovirus; conditions: for IC50: Human betaherpesvirus 5, AD169, virus plaque formation, HEL cells, virus input 100 PFU; for activity against CMV (in words): strain not specified
CMV David Strain = assay: CMV plaque formation in HEL cells, David strain; format: cell-based, human Cytomegalovirus; conditions: Human betaherpesvirus 5, virus plaque formation, virus input 100 PFU
[1] = test system: murine leukemia cells (L1210/0); assay: Inhibition of proliferation of murine leukemia cells L1210/0; format: cell-based; conditions: for IC50: Mus musculus, L1210/0, read-out: IC50 L1210/0; for effect on cell proliferation (in words): at concentrations up to 200 ppm, L1210/0, FM3A
Description: (§1) The compounds were tested for antitumor activity via the inhibitory effects on the proliferation of murine leukemia cells (L1210/0), murine mammary carcinoma cells (FM3A) and human T-lymphocyte cells (Molt4/C8), (CEM/0). […] Compound A1 and Compound A4 show no effect at concentrations up to 200 ppm.

[2] = test system: murine mammary carcinoma cells (FM3A); assay: Inhibition of proliferation of murine mammary carcinoma cells FM3A; format: cell-based; conditions: Mus musculus, cytostatic activity, 50% inhibitory concentration, read-out: IC50 FM3A/0
Description: as §1

[3] = test system: human T-lymphocyte cells (Molt4/C8); assay: Inhibition of proliferation of human T-lymphocyte cells Molt4/C8; format: cell-based; conditions: cytostatic activity, 50% inhibitory concentration
Description: as §1

[4] = test system: human T-lymphocyte cells (CEM/0); assay: Inhibition of proliferation of human T-lymphocyte cells CEM/0; format: cell-based; conditions: CCRF-CEM, cytostatic activity, 50% inhibitory concentration
Description: as §1

[5] = test system: E. faecalis ATCC 29212 LMG 8222; assay: microbe, parasite or virus in culture; format: cell-based; conditions: Enterococcus faecalis, negative control = 100, read-out: % of growth at 25 PPM compared to negative control, E. faecalis ATCC 29212 LMG 8222
[6] = test system: S. aureus ATCC 29213 LMG 10147; assay: microbe, parasite or virus in culture; format: cell-based; conditions: Staphylococcus aureus, negative control = 100, read-out: % of growth at 25 PPM compared to negative control, S. aureus ATCC 29213 LMG 10147
[7] = test system: P. aeruginosa ATCC 27853 LMG 16217; assay: microbe, parasite or virus in culture; format: cell-based; conditions: Pseudomonas aeruginosa, negative control = 100, read-out: % of growth at 25 PPM compared to negative control, P. aeruginosa ATCC 27853 LMG 16217
E. coli ATCC 25922 = assay: microbe, parasite or virus in culture; format: cell-based; conditions: Escherichia coli, ATCC25922, negative control = 100, read-out: % of growth at 25 PPM compared to negative control, E. coli ATCC 25922
[8] = test system: Candida albicans ATCC 24433 IHEM 10284; assay: microbe, parasite or virus in culture; format: cell-based; conditions: ATCC24433, negative control = 100, read-out: % of growth at a dose of 25 PPM compared to the negative control, Candida albicans ATCC 24433 IHEM 10284
[9] = test system: T. mentagrophytes ATCC 9233 IHEM 10342; assay: microbe, parasite or virus in culture; format: cell-based; conditions: Trichophyton mentagrophytes, ATCC9233, negative control = 100, read-out: % of growth at a dose of 25 PPM compared to the negative control, T. mentagrophytes ATCC 9233 IHEM 10342
A. fumigatus IHEM 2895 = assay: microbe, parasite or virus in culture; format: cell-based; conditions: Aspergillus fumigatus, IHEM2895, negative control = 100, read-out: % of growth at a dose of 25 PPM compared to the negative control, A. fumigatus IHEM 2895
[10] = test system: C. neoformans ATCC 90112 IHEM 9558; assay: microbe, parasite or virus in culture; format: cell-based; conditions: Cryptococcus neoformans, ATCC90112, negative control = 100, read-out: % of growth at a dose of 25 PPM compared to the negative control, C. neoformans ATCC 90112 IHEM 9558
[11] = test system: C. perfringens ATCC 13124; format: cell-based, Clostridium perfringens; conditions: negative control = 100

Structure (SMILES)	EC50 (HIV-1 (IIIB)) [µg/mL]	EC50 (HIV-2 (ROD)) [µg/mL]	EC50 (HSV-1 (KOS)) [µg/mL]	EC50 (HSV-2 (G)) [µg/mL]	EC50 (VV) [µg/mL]	EC50 (VZV OKA) [µg/mL]	EC50 (VZV 07/1) [µg/mL]	IC50 (CMV AD-169 Strain) [µg/mL]	IC50 (CMV David Strain) [µg/mL]	IC50 [1] [µg/mL]	IC50 [2] [µg/mL]	activity at 25 ppm [5] [%]	activity at 25 ppm [6] [%]	activity at 25 ppm [7] [%]	activity at 25 ppm (E. coli ATCC 25922) [%]	activity at 25 ppm [8] [%]	activity at 25 ppm [9] [%]	activity at 25 ppm (A. fumigatus IHEM 2895) [%]	activity at 25 ppm [10] [%]	% of growth at 25 PPM compared to negative control, C. perfringens ATCC 13124 [11] [%]	further results
OC[C@H]1O[C@@H](c2ccccc2)[C@H](O)[C@@H]1O [Compound A1, β-D-1-Deoxy-1-phenyl-ribofuranose]	> 100	> 100	> 400	> 400	> 400	> 50	> 50	> 50	> 50	> 200	> 200	96	96.7	92.7	93.4	89.2	62.4	106	93.3		effect on cell proliferation (in words) ([1]; Molt4/C8, CEM/0): no effect; IC50 [3]: > 200 µg/mL; IC50 [4]: > 200 µg/mL; melting point: 118 °C
OC[C@H]1O[C@@H](c2ccccc2)C[C@@H]1O [Compound A8, β-D-1,2-dideoxy-1-phenyl-ribofuranose]			> 400	> 400	> 400			> 100	> 100			95.5	92.3	92.7	99.2	92.4	95	107	84.8	96.2	melting point: 89 to 91 °C
CO[C@@H]1[C@@H]2O[C@H](c3ccccc3)OC[C@H]2O[C@H]1c1ccccc1 [Compound A5, β-D-1-Deoxy-1-phenyl-2-O-methyl-3,5-O-benzylidene-ribose]												92	92	91	124	120	66	57	76	95.0	activity against CMV (in words) (CMV AD-169 Strain): slight
CC(C)[Si]1(C(C)C)OC[C@H]2OC(c3ccccc3)C[C@@H]2O[Si](C(C)C)(C(C)C)O1 (stereo partly drawn) [Compound A6 A + B, α-β-D-1,2-dideoxy-1-phenyl-3,5-O-(1,1,3,3-tetraisopropyldisiloxanylidene)-ribofuranose]												95	95	92	94	85	56	54	102	98.0	
CC(=O)OC[C@H]1O[C@@H](c2ccccc2)C[C@@H]1OC(C)=O [Compound A7, β-D-1,2-dideoxy-1-phenyl-ribofuranose-3,5-diacetate]			> 400	> 400	> 400			> 100	> 100			98.1	91.2	92.7	94.8	83.4	83	95	67.8	95.4	
CO[C@@H]1[C@H](O)[C@@H](CO)O[C@H]1c1ccccc1 [Compound A4, β-D-1-Deoxy-1-phenyl-2-O-methyl-ribofuranose]	> 100	> 100	> 400	> 400	> 400	> 50	> 50	> 50	> 50	> 200	> 200	95.4	96.9	93.5	92.8	110	79.7	70.9	99.9		effect on cell proliferation (in words) ([1]; Molt4/C8, CEM/0): no effect; IC50 [3]: > 200 µg/mL; IC50 [4]: > 200 µg/mL
CO[C@@H]1[C@@H]2O[Si](C(C)C)(C(C)C)O[Si](C(C)C)(C(C)C)OC[C@H]2O[C@H]1c1ccccc1 [Compound A3, β-D-1-Deoxy-1-phenyl-2-O-methyl-3,5-O-(1,1,3,3-tetraisopropyldisiloxanylidene)-ribofuranose]	> 4	> 4	> 16	> 16	> 16	> 2	> 2	1.3 (≈ 2.79 µM)	1.3 (≈ 2.79 µM)	18 ± 0.5 (≈ 38.6 µM)	15 (≈ 32.1 µM)	94.2	92.5	87.6	91.3	62.2	64.4	37.5	81.1		activity against CMV (in words) (CMV AD-169 Strain): significant activity; cytostatic activity (in words) ([1]; text summary over L1210/0, FM3A, Molt4/C8, CEM/0): small cytostatic activity; IC50 [3]: 19 ± 2 µg/mL (≈ 40.7 µM); IC50 [4]: 20 ± 4 µg/mL (≈ 42.8 µM)
CC1(C)O[C@H]2O[C@H](COCc3ccccc3)[C@H](OCc3ccccc3)[C@H]2O1 [Compound A9, α-D-1,2-O-isopropylidene-3,5-O-dibenzyl-xylofuranose]			> 80	> 80	48 (≈ 130 µM)	> 80	> 80	10.5 (≈ 28.3 µM)	7.6 (≈ 20.5 µM)			102	93.7	93	95.6	85.9	92	74	55.1	95.1	activity against VV (in words) (VV; Table 2): slight activity; activity against CMV (in words) (CMV AD-169 Strain): significant activity
